US20260297060A1, “COMPOUNDS FOR THE DEGRADATION OF MUTANT BRAF” (C4 THERAPEUTICS, INC., priority 2023, published 2026)

Legend:
[1] = test system: A375 human melanoma xenografts; experiment: Example 9 efficacy study Part I in A375 human melanoma xenografts (tumor volume, T/C, TGI); format: in vivo, BALB/c nude mice; settings: 10 mg/kg, p.o., BID × 14 days; for Tumor Size on PG-D14: Mean ± SEM; for TGI (Tumor Growth Inhibition): PG-D14; for T/C: PG-D14, treated/control average tumor volume
Procedure: For efficacy study Part I, agents were tested in the A375 human melanoma xenografts. Compound 218 and Compound 157 were administered to BALB/c nude mice bearing A375 xenografts from day 0 and dosed twice a day (BID) for 14 days. Compound 218 and Compound 157 were dosed at 10 mg/kg via p.o.. Dabrafenib was administered from day 1 daily (QD) for 14 days and dosed at 100 mg/kg via p.o..
The A375 tumor cells were maintained in vitro in DMEM medium supplemented with […] and 1% Penicillin-Streptomycin at 37° C. in an atmosphere of 5% CO2 in air. The tumor cells were routinely subcultured twice weekly. The cells growing in an exponential growth phase were harvested and counted for tumor inoculation.
Each mouse was inoculated subcutaneously at the right flank with A375 cells (5×10^6) in 0.2 mL of PBS supplemented with Matrigel (PBS: Matrigel=1:1) for tumor development. Animals were grouped for the treatment when the average tumor volume reached 243 mm^3 for efficacy study part I and 413 mm^3 for the PK and PD study part I on day 15, and 271 mm^3 for efficacy part II and 443 mm^3 for the PK and PD part II on day 18, and 463 mm^3 for the PK and PD study part III on day 21. The test articles administration and the animal numbers in each group are shown in the above experimental tables.
Prior to the onset of drug treatment, mice were measured for tumor size in two dimensions using a caliper, and the tumor volume (mm^3) was calculated using formula V=0.5 a×b^2 where a and b are the long and short diameters of the tumor in mm, respectively. Mice were randomized into different treatment groups based on the tumor volume.
The major endpoint was to see if the tumor growth could be delayed or mice could be cured. The tumor size was then used for calculations of T/C value. The T/C value (in percent) is an indication of antitumor effectiveness; T and C are the mean volumes of the treated and control groups, respectively on specified day.
TGI was calculated for each group using the formula: TGI (%)=[1−(Ti−T0)/(Ci−C0)]×100; Ti is the average tumor volume of a treatment group on a given day, To is the average tumor volume of the treatment group on the day of treatment start, Ci is the average tumor volume of the vehicle control group on the same day with Ti, and C0 is the average tumor volume of the vehicle group on the day of treatment start.

[2] = test system: A375 human melanoma cancer cell derived xenografts, intracranial; experiment: Example 12 efficacy study, intracranial A375-luciferase CNS model: survival; format: in vivo, BALB/c nude mice; settings: 10 mg/kg PO/BID; for survival rate / mice that have demonstrated end point cut offs and were terminated: as of day 75; for median survival: dosing stopped on day 120, survival curve up to 200 days; for mice that have demonstrated end point cut offs and were terminated: groups of 8 mice
Procedure: For the efficacy study, agents were tested in A375 human melanoma cancer cell derived xenografts (CDX). This cell line was isolated from the primary melanoma of a person and is known to have a homozygous BRAF V600E mutation. The A375 tumor cells were maintained in vitro in DMEM medium supplemented with 10% fetal bovine serum and 1% Penicillin-Streptomycin at 37° C. in an atmosphere of 5% CO2 in air. The tumor cells were routinely subcultured twice weekly. The cells growing in an exponential growth phase were harvested and counted for tumor inoculation.
For this CNS study, A375 cells with a luciferase tag for tracking tumor cell signal, were injected intracranially into 6-8-week-old female BALB/c nude mice (Zhejiang Vital River Laboratory Animal Co., LTD. Beijing, China). The mice were anaesthetized, restrained, and sterilized prior to surgery. A sagittal cut was made above the anterior parietal and occipital bone with sterilized scalpel, the skull was unrevealed and cleaned with cotton bud, in this case the anterior fontanel could be available. A 2 mm hole was created to the right of the anterior fontanel and 0.5 mm ahead of the coronal on the skull with a cranial drill. Cell suspensions in 20% Matrigel were mixed and aspirated into injector carefully to avoid bubbles and wiped to avoid extracranial tumor genesis. The needle was inserted vertically into the cranial hole and the cell mixture was slowly injected for 2 minutes and held for another minute to decrease the drainage of the cell suspension. The wound was closed, and a subcutaneous injection of 5 mg/kg Meloxicam was given to relieve the pain and continued for 3 days. The mice were monitored closely until they woke up after the surgery. During the study, the care and use of animals was conducted in accordance with the regulations of the Association for Assessment and Accreditation of Laboratory Animal Care (AAALAC). After inoculation, the animals were checked daily for morbidity and mortality. At the time of routine monitoring, the animals would be checked for any effects of tumor growth and treatments on normal behavior such as mobility, food and water consumption, body weight gain/loss, eye/hair matting, and any other abnormal effect.
The administration of the test agents began three days after inoculation. CNS tumor-bearing mice were randomly assigned to groups of 8 mice and administered Compound 26 at 10 mg/kg orally (PO) twice a day (BID), Compound 141 at 10 mg/kg PO/BID, encorafenib at 35 mg/kg once a day orally, (PO/QD), or the vehicle alone PO/BID. Measurements for the presence of the A375 luciferase (CRL-1619-LUC2, ATCC, Manassas, VA, USA) cells within the CNS were done with IVIS Lumina III machine. Images were collected twice weekly to follow the growth of the models. The tumor-bearing mice were weighed and intraperitoneally administered luciferin (Perkin Elmer Inc-122799) at a dosage of 150 mg/kg. After 10 min, mice were pre-anesthetized with the mixture gas of oxygen and isoflurane. The bioluminescence value at 15 min post luciferin injection was recorded as the final value and plotted. The endpoint for individual mice was reached when the mouse body weight decreased by 20% when compared to their starting weight.

BRAF V600E = experiment: Pharmacodynamics of BRAF protein degradation in inoculated CNS tumors (Example 12); format: in vivo, human A375 CNS xenograft in mice; settings: CNS tumor-bearing mice, after administration, versus encorafenib, FIG. 51
Procedure: FIG. 51 is a plot showing the pharmacodynamics of BRAF protein degradation in the inoculated CNS tumors. […] The experiment was conducted as described in Example 12.

## CCN(C)S(=O)(=O)Nc1ccc(F)c(Oc2ccc3ncc(OC4CC5(CCN(C6CCC(c7cc8c(cc7F)c(N7CCC(=O)NC7=O)nn8C)CC6)CC5)C4)nc3c2)c1C#N (single isomer, unassigned) [Compound 218, 7-[2-cyano-3-[[ethyl(methyl)sulfamoyl]amino]-6-fluoro-phenoxy]-2-[[7-[4-[3-(2,4-dioxohexahydropyrimidin-1-yl)-5-fluoro-1-methyl-indazol-6-yl]cyclohexyl]-7-azaspiro[3.5]nonan-2-yl]oxy]quinoxaline]
[1]; Day 0, Mean ± SEM
  Tumor Volume Trace Over Time: 243 ± 5 mm^3
[1]; Day 3, Mean ± SEM
  Tumor Volume Trace Over Time: 240 ± 21 mm^3
[1]; Day 7, Mean ± SEM
  Tumor Volume Trace Over Time: 114 ± 9 mm^3
[1]; Day 10, Mean ± SEM
  Tumor Volume Trace Over Time: 80 ± 9 mm^3
[1]; Day 14, Mean ± SEM
  Tumor Volume Trace Over Time: 60 ± 8 mm^3
[1]
  Tumor Size on PG-D14: 60 ± 8 mm^3
  TGI (Tumor Growth Inhibition): 116.68%
  T/C: 4.47%

## CCN(C)S(=O)(=O)Nc1ccc(F)c(Oc2ccc3ncn([C@H]4COC5(CCN(C6CC7(C6)CN(c6cc8c(cc6F)c(N6CCC(=O)NC6=O)nn8C)C7)CC5)C4)c(=O)c3c2)c1C#N [Compound 26, (3R)-3-[6-[2-cyano-3-[[ethyl(methyl)sulfamoyl]amino]-6-fluoro-phenoxy]-4-oxo-quinazolin-3-yl]-8-[2-[3-(2,4-dioxohexahydropyrimidin-1-yl)-5-fluoro-1-methyl-indazol-6-yl]-2-azaspiro[3.3]heptan-6-yl]-1-oxa-8-azaspiro[4.5]decane]
[2]
  survival rate: 75%
  median survival: 91 days
  mice that have demonstrated end point cut offs and were terminated: two
BRAF V600E
  BRAF V600E levels in the brain tumor compared with encorafenib: much lower

## CCN(C)S(=O)(=O)Nc1ccc(F)c(Oc2ccc3ncn(C4CC5(CCN(C6CC7(C6)CN(c6cc8c(cc6F)c(N6CCC(=O)NC6=O)nn8C)C7)CC5)C4)c(=O)c3c2)c1C#N (stereo not drawn) [Compound 141, 6-[2-cyano-3-[[ethyl(methyl)sulfamoyl]amino]-6-fluoro-phenoxy]-3-[7-[2-[3-(2,4-dioxohexahydropyrimidin-1-yl)-5-fluoro-1-methyl-indazol-6-yl]-2-azaspiro[3.3]heptan-6-yl]-7-azaspiro[3.5]nonan-2-yl]-4-oxo-quinazoline]
[2]
  survival rate: 75%
  median survival: 89.5 days
  mice that have demonstrated end point cut offs and were terminated: 2 mice
BRAF V600E
  BRAF V600E levels in the brain tumor compared with encorafenib: much lower

## CO[C@H]1CCN(S(=O)(=O)Nc2ccc(F)c(Oc3ccc4ncn([C@H]5COC6(CCN(C7CC8(C7)CN(c7cc9c(cc7F)c(N7CCC(=O)NC7=O)nn9C)C8)CC6)C5)c(=O)c4c3)c2C#N)C1 [Compound 157, (3S)-N-[2-cyano-3-[3-[(3R)-8-[2-[3-(2,4-dioxohexahydropyrimidin-1-yl)-5-fluoro-1-methyl-indazol-6-yl]-2-azaspiro[3.3]heptan-6-yl]-1-oxa-8-azaspiro[4.5]decan-3-yl]-4-oxo-quinazolin-6-yl]oxy-4-fluoro-phenyl]-3-methoxy-pyrrolidine-1-sulfonamide]
[1]; Day 0, Mean ± SEM
  Tumor Volume Trace Over Time: 243 ± 4 mm^3
[1]; Day 3, Mean ± SEM
  Tumor Volume Trace Over Time: 272 ± 12 mm^3
[1]; Day 7, Mean ± SEM
  Tumor Volume Trace Over Time: 191 ± 17 mm^3
[1]; Day 10, Mean ± SEM
  Tumor Volume Trace Over Time: 166 ± 15 mm^3
[1]; Day 14, Mean ± SEM
  Tumor Volume Trace Over Time: 183 ± 37 mm^3
[1]
  Tumor Size on PG-D14: 183 ± 37 mm^3
  TGI (Tumor Growth Inhibition): 105.48%
  T/C: 13.68%
